Measured values from patent US20040152106A1, “Gene necessary for striatal function, uses thereof, and compounds for modulating same” (priority 1999, published 2004).

Legend:
[1] = target: T1, PDE10A (Mus musculus, UniProt Q8CA95); settings: among inhibitors tested on PDE10A; cited from earlier work
T1 sequence (Q8CA95 1-779 isoform Q8CA95-2): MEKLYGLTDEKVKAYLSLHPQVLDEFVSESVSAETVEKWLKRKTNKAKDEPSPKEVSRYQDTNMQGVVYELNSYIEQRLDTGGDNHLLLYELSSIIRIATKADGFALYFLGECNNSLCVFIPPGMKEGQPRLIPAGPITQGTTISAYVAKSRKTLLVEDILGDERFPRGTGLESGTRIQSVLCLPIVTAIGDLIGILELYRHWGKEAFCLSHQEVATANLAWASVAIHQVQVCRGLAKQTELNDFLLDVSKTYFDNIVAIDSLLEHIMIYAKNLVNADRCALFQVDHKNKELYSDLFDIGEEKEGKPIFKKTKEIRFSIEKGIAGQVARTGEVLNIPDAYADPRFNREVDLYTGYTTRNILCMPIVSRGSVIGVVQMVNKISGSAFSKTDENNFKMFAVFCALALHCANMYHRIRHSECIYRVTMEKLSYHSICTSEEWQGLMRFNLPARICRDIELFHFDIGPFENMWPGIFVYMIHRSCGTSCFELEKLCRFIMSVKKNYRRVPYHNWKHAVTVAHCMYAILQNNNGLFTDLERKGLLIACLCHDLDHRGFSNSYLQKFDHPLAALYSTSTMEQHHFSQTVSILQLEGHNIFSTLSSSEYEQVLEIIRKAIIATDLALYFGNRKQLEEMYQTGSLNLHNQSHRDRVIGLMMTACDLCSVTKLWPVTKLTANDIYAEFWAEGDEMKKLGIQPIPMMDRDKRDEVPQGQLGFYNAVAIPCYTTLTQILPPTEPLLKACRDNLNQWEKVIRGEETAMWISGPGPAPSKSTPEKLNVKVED

[2] = system: Huntington's disease patient; test: Clinical use of PDE10A modulator in a Huntington's disease patient (case report); type: in vivo, human; settings: 200 mg twice daily resumed after 7 days of suspension
Protocol: A person was admitted to hospital from a long-term care facility due to progressive deterioration of their physical and mental symptoms caused by Huntington's disease. The patient had been diagnosed with Huntington's disease. Prior to admission to the hospital, they had become increasingly aggressive and uncooperative. Moreover, there appeared to be an increase in the number of psychotic episodes. […] The patient had been stable for a number of years on the antipsycotic haloperidol (3 mg/day). For the last two years, the haloperidol had been replaced by olanzapine (2.5-7.5 mg/day). Minocycline, a tetracycline derivative, was administered at 50 mg twice daily for 7 days, followed by 100 mg twice daily for 7 days and finally 200 mg twice daily for 5 weeks. […] The minocycline treatment was suspended for 7 days. […] Minocycline (200 mg twice daily) treatment will continue indefinitely. The improvement in behaviour and decrease in apparent psychosis has allowed for the transfer of the patient from the acute care facility back to long-term care.

| Compound | potency as inhibitor of PDE10A activity [1] | time to response after resumed treatment [2] [days] |
| --- | --- | --- |
| CN1C(=O)c2[nH]c(Cc3ccc(C(F)(F)F)cc3)nc2N2C1=N[C@@H]1CCC[C@@H]12 [SCH 51866] | highest potency | – |
| CC(C)Cn1c(=O)n(C)c(=O)c2[nH]cnc21 [IBMX] | potent inhibitor | – |
| OCCN(CCO)c1nc(N2CCCCC2)c2nc(N(CCO)CCO)nc(N3CCCCC3)c2n1 [Dipyridamole] | highest potency | – |
| CN(C)c1ccc(O)c2c1C[C@H]1C[C@H]3[C@H](N(C)C)C(O)=C(C(N)=O)C(=O)[C@@]3(O)C(O)=C1C2=O [Minocycline] | – | ≤ 3 |
